{"source": "paper PMC9032457", "about": "“Binding Interaction of Betulinic Acid to α-Glucosidase and Its Alleviation on Postprandial Hyperglycemia” (Molecules, 2022)", "key": {"[1]": {"system": "postprandial blood glucose level", "test": "Oral disaccharide tolerance test (ODTT)", "type": "in vivo, BALB/c mice", "settings": "normal mice, oral BA 20 mg/kg or acarbose 7 mg/kg; for postprandial blood glucose levels vs control: after mixed maltose-sucrose, p < 0.01; for blood glucose level at 30 min: mixed maltose-sucrose 2 g/kg, control 12.58 ± 0.47", "description": "(§1) The dynamic characteristics of postprandial blood glucose level were evaluated by ODTT and OGTT, which were performed as described previously. BALB/c mice (5 weeks old, male) were purchased from Guangdong Medical Laboratory Animal Center (Guangzhou, China). The animal study was approved by the Committee on the Ethics of Animal Experiments of the Institute of Microbiology, Guangdong Academy of Science (GT-IACUC202012102). After one week of acclimation, the mice were randomly divided into a control group, BA-treated group and acarbose-treated group (n = 8), respectively. […] After 30 min, all the mice were intragastrically administered with the mixed maltose-sucrose solution (2 g/kg). In total, 10 μL of blood was collected by tail cut and glucose levels at 0, 30, 60, 90 and 120 min was measured by glucometer (Roche ACCU-CHEK Performa Nano), respectively. Two days later, all the mice were give the oral glucose tolerance test (OGTT), which was performed as the ODTT modus. The oral dose of glucose was also 2 g/kg."}, "[2]": {"system": "postprandial blood glucose level", "test": "Oral glucose tolerance test (OGTT)", "type": "in vivo, BALB/c mice", "settings": "normal mice, oral BA 20 mg/kg or acarbose 7 mg/kg; glucose 2 g/kg", "description": "as §1"}, "α-glucosidase [3]": {"target": "T1, α-glucosidase (Saccharomyces cerevisiae, UniProt P53341)", "T1 construct": "purchased Sigma-Aldrich", "T1 sequence (P53341 whole entry)": "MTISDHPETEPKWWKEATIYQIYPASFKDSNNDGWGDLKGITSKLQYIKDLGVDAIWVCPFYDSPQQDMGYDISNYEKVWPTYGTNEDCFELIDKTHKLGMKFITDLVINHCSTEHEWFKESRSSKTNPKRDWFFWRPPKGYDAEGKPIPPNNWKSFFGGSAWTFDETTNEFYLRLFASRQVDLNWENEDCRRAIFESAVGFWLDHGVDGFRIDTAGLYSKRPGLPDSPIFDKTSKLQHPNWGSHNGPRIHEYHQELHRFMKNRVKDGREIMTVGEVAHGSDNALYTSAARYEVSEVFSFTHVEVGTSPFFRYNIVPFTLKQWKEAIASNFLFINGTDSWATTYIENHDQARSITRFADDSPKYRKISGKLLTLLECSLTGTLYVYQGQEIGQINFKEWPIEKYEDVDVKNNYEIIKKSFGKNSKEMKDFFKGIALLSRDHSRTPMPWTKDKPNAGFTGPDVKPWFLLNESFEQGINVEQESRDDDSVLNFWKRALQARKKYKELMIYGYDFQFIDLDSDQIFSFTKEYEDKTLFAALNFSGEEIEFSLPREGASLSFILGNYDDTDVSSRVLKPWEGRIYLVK", "parameters": "method as in PMID 29902001, doi:10.1016/j.indcrop.2015.08.031, PMID 33876656", "settings": "in vitro; read-out: IC50 against α-glucosidase, previous research; cited from earlier work"}, "α-glucosidase [4]": {"target": "T1, α-glucosidase", "test": "SPR assay (Biacore T200)", "type": "binding", "settings": "1:1 Langmuir model, enzyme immobilized on CM5 chip, read-out: equilibrium dissociation constant (KD)", "description": "SPR analysis was applied on a Biacore T200 system (GE Healthcare, Uppsala, Sweden). α-Glucosidase solution (50 μg/mL) was prepared and stayed at room temperature for 30 min. Then, the activated α-glucosidase was immobilized on a CM5 sensor chip pre-activated by EDC/NHS with an amine coupling kit at a flow rate of 10 μL/min. BA solution of different concentrations containing 5% DMSO was serially injected over α-glucosidase coated surface. PBS was used as the mobile phase with a flow rate of 30 μL/min. According to the 1:1 Langmuir model, the equilibrium dissociation constant (KD) was calculated by the Biacore evaluation software. (https://www.cytivalifesciences.com/en/us/shop/protein-analysis/spr-label-free-analysis/software/biacore-insight-evaluation-software-p-23528, accessed on 26 October 2016)."}, "α-glucosidase [5]": {"target": "T1, α-glucosidase", "test": "Enzyme inhibition kinetics (Lineweaver-Burk plot)", "type": "biochemical", "description": "α-Glucosidase inhibition kinetics was studied as previously reported. BA was set with the concentrations of 0, 12 and 24 μM for 0.2 U/mL α-glucosidase. A series of concentrations of pNPG were used as substrates. The inhibition type was determined by using the Lineweaver–Burk plots and its secondary equations. The kinetic parameters (Vmax and Ki) were evaluated by the nonlinear regression of the Michaelis–Menton equation with GraphPad Prism 7.0. (https://www.graphpad.com/support/prism-7-updates/, accessed on 12 May 2021)."}, "α-glucosidase [6]": {"target": "T1, α-glucosidase", "test": "Combination of acarbose with BA on α-glucosidase activity", "type": "biochemical, yeast", "parameters": "key to Vab (observed residual activity) / Vc (expected residual activity): fraction of remaining α-glucosidase activity (0–1)", "description": "The method was the same as the α-glucosidase activity assay. […] The value for BA (Vb) was also defined. If the inhibitory effects on α-glucosidase of the two compounds are independent, the final remnant activity fraction of α-glucosidase (Vc) is equal to VaVb when the reaction is sequentially treated by those two compounds. […] The types of interaction were determined by the relationship between Vab and Va, Vb, or Vc."}, "α-glucosidase [7]": {"target": "T1, α-glucosidase", "test": "α-Glucosidase inhibition assay (pNPG substrate)", "type": "biochemical", "description": "α-Glucosidase inhibition was assayed according to the methods described previously. Briefly, 40 μL phosphate buffer (0.1 M, pH = 6.8), 10 μL BA solutions and 50 μL α-glucosidase solution (0.4 U/mL) were added into 96-well plates and mixed thoroughly. After being incubated at 37 °C for 10 min, 50 μL pNPG solution (2.5 mM) was added to initiate the reaction and stayed at 37 °C for 30 min. Then, 40 μL Na2CO3 solution (1.0 M) was added to terminate the reaction. A microplate reader was employed to read the absorbance at 405 nm. The inhibition rates (%) = [(ODcontrol − ODcontrol blank) − (OD test − ODtest blank)]/(ODcontrol − ODcontrol blank) × 100%."}, "α-glucosidase [8]": {"target": "T1, α-glucosidase", "parameters": "method as in PMID 29030193", "settings": "literature; cited from earlier work"}}, "note": "Read-outs that look alike come from different tables or passages of the source."}
{"smiles": "C=C(C)[C@@H]1CC[C@]2(C(=O)O)CC[C@]3(C)[C@H](CC[C@@H]4[C@@]5(C)CC[C@H](O)C(C)(C)[C@@H]5CC[C@]43C)[C@@H]12", "note": "[BA, betulinic acid]", "values": [{"measurement": "postprandial blood glucose levels vs control", "setting": "[1]", "value": "significantly suppressed"}, {"measurement": "blood glucose level at 30 min", "setting": "[1]", "value": "10.46 ± 0.31", "unit": "mM"}, {"measurement": "effect on blood glucose level after oral glucose", "setting": "[2]", "value": "no significant effect"}, {"measurement": "IC50", "setting": "α-glucosidase [3]", "value": "10.6 to 83.6", "unit": "µM"}, {"measurement": "Kd", "setting": "α-glucosidase [4]", "value": 55.3, "unit": "µM"}, {"measurement": "inhibition type", "setting": "α-glucosidase [5]; Lineweaver-Burk plot, BA 0, 12 and 24 μM, 0.2 U/mL enzyme", "value": "non-competitive"}, {"measurement": "Ki", "setting": "α-glucosidase [5]; from secondary plot of slope vs. BA, read-out: inhibition kinetic constant (Ki)", "value": 38.5, "unit": "µM"}, {"measurement": "Interaction", "setting": "α-glucosidase [6]; BA 5 μM + acarbose 600 μM", "value": "SY (Vab − Vc < −0.1 is considered as the synergistic (SY) interaction between BA and acarbose)"}, {"measurement": "Vab (observed residual activity)", "setting": "α-glucosidase [6]; BA 5 μM + acarbose 600 μM", "value": 0.47}, {"measurement": "Vab − Vc", "setting": "α-glucosidase [6]; BA 5 μM + acarbose 600 μM", "value": "−0.12"}, {"measurement": "Vc (expected residual activity)", "setting": "α-glucosidase [6]; BA 5 μM + acarbose 600 μM", "value": 0.59}, {"measurement": "Interaction", "setting": "α-glucosidase [6]; BA 5 μM + acarbose 800 μM", "value": "SY (Vab − Vc < −0.1 is considered as the synergistic (SY) interaction between BA and acarbose)"}, {"measurement": "Vab (observed residual activity)", "setting": "α-glucosidase [6]; BA 5 μM + acarbose 800 μM", "value": 0.42}, {"measurement": "Vab − Vc", "setting": "α-glucosidase [6]; BA 5 μM + acarbose 800 μM", "value": "−0.15"}, {"measurement": "Vc (expected residual activity)", "setting": "α-glucosidase [6]; BA 5 μM + acarbose 800 μM", "value": 0.56}, {"measurement": "Interaction", "setting": "α-glucosidase [6]; BA 5 μM + acarbose 1000 μM", "value": "SY (Vab − Vc < −0.1 is considered as the synergistic (SY) interaction between BA and acarbose)"}, {"measurement": "Vab (observed residual activity)", "setting": "α-glucosidase [6]; BA 5 μM + acarbose 1000 μM", "value": 0.41}, {"measurement": "Vab − Vc", "setting": "α-glucosidase [6]; BA 5 μM + acarbose 1000 μM", "value": "−0.13"}, {"measurement": "Vc (expected residual activity)", "setting": "α-glucosidase [6]; BA 5 μM + acarbose 1000 μM", "value": 0.53}, {"measurement": "Interaction", "setting": "α-glucosidase [6]; BA 10 μM + acarbose 600 μM", "value": "SY (Vab − Vc < −0.1 is considered as the synergistic (SY) interaction between BA and acarbose)"}, {"measurement": "Vab (observed residual activity)", "setting": "α-glucosidase [6]; BA 10 μM + acarbose 600 μM", "value": 0.39}, {"measurement": "Vab − Vc", "setting": "α-glucosidase [6]; BA 10 μM + acarbose 600 μM", "value": "−0.18"}, {"measurement": "Vc (expected residual activity)", "setting": "α-glucosidase [6]; BA 10 μM + acarbose 600 μM", "value": 0.57}, {"measurement": "Interaction", "setting": "α-glucosidase [6]; BA 10 μM + acarbose 800 μM", "value": "SY (Vab − Vc < −0.1 is considered as the synergistic (SY) interaction between BA and acarbose)"}, {"measurement": "Vab (observed residual activity)", "setting": "α-glucosidase [6]; BA 10 μM + acarbose 800 μM", "value": 0.36}, {"measurement": "Vab − Vc", "setting": "α-glucosidase [6]; BA 10 μM + acarbose 800 μM", "value": "−0.18"}, {"measurement": "Vc (expected residual activity)", "setting": "α-glucosidase [6]; BA 10 μM + acarbose 800 μM", "value": 0.54}, {"measurement": "Interaction", "setting": "α-glucosidase [6]; BA 10 μM + acarbose 1000 μM", "value": "SY (Vab − Vc < −0.1 is considered as the synergistic (SY) interaction between BA and acarbose)"}, {"measurement": "Vab (observed residual activity)", "setting": "α-glucosidase [6]; BA 10 μM + acarbose 1000 μM", "value": 0.34}, {"measurement": "Vab − Vc", "setting": "α-glucosidase [6]; BA 10 μM + acarbose 1000 μM", "value": "−0.17"}, {"measurement": "Vc (expected residual activity)", "setting": "α-glucosidase [6]; BA 10 μM + acarbose 1000 μM", "value": 0.51}, {"measurement": "Interaction", "setting": "α-glucosidase [6]; BA 15 μM + acarbose 600 μM", "value": "SY (Vab − Vc < −0.1 is considered as the synergistic (SY) interaction between BA and acarbose)"}, {"measurement": "Vab (observed residual activity)", "setting": "α-glucosidase [6]; BA 15 μM + acarbose 600 μM", "value": 0.32}, {"measurement": "Vab − Vc", "setting": "α-glucosidase [6]; BA 15 μM + acarbose 600 μM", "value": "−0.18"}, {"measurement": "Vc (expected residual activity)", "setting": "α-glucosidase [6]; BA 15 μM + acarbose 600 μM", "value": 0.50}, {"measurement": "Interaction", "setting": "α-glucosidase [6]; BA 15 μM + acarbose 800 μM", "value": "SY (Vab − Vc < −0.1 is considered as the synergistic (SY) interaction between BA and acarbose)"}, {"measurement": "Vab (observed residual activity)", "setting": "α-glucosidase [6]; BA 15 μM + acarbose 800 μM", "value": 0.29}, {"measurement": "Vab − Vc", "setting": "α-glucosidase [6]; BA 15 μM + acarbose 800 μM", "value": "−0.18"}, {"measurement": "Vc (expected residual activity)", "setting": "α-glucosidase [6]; BA 15 μM + acarbose 800 μM", "value": 0.48}, {"measurement": "Interaction", "setting": "α-glucosidase [6]; BA 15 μM + acarbose 1000 μM", "value": "SY (Vab − Vc < −0.1 is considered as the synergistic (SY) interaction between BA and acarbose)"}, {"measurement": "Vab (observed residual activity)", "setting": "α-glucosidase [6]; BA 15 μM + acarbose 1000 μM", "value": 0.28}, {"measurement": "Vab − Vc", "setting": "α-glucosidase [6]; BA 15 μM + acarbose 1000 μM", "value": "−0.16"}, {"measurement": "Vc (expected residual activity)", "setting": "α-glucosidase [6]; BA 15 μM + acarbose 1000 μM", "value": 0.45}, {"measurement": "fold stronger than acarbose (IC50)", "setting": "α-glucosidase [7]; BA IC50 vs acarbose IC50", "value": "approximately 50 fold"}, {"measurement": "IC50", "setting": "α-glucosidase [7]; pNPG 2.5 mM, pH 6.8, 37 °C, read-out: IC50 against α-glucosidase", "value": "16.8 ± 1.16", "unit": "µM"}]}
{"smiles": "C[C@H]1O[C@H](O[C@H]2[C@H](O)[C@@H](O)[C@@H](O[C@H]3[C@H](O)[C@@H](O)C(O)O[C@@H]3CO)O[C@@H]2CO)[C@H](O)[C@@H](O)[C@@H]1N[C@H]1C=C(CO)[C@@H](O)[C@H](O)[C@H]1O", "note": "(stereo partly drawn) [acarbose, reference compound]", "values": [{"measurement": "postprandial blood glucose levels vs control", "setting": "[1]", "value": "significantly suppressed"}, {"measurement": "blood glucose level at 30 min", "setting": "[1]", "value": "10.76 ± 0.39", "unit": "mM"}, {"measurement": "effect on blood glucose level after oral glucose", "setting": "[2]", "value": "no significant effect"}, {"measurement": "inhibition type", "setting": "α-glucosidase [8]", "value": "competitive"}]}
{"smiles": "CC1(C)CC[C@]2(C(=O)O)CC[C@]3(C)C(=CC[C@@H]4[C@@]5(C)CC[C@H](O)C(C)(C)[C@@H]5CC[C@]43C)[C@@H]2C1", "note": "[oleanolic acid]", "values": [{"measurement": "inhibition type", "setting": "α-glucosidase [8]", "value": "non-competitive"}]}
{"smiles": "C[C@H]1[C@H](C)CC[C@]2(C(=O)O)CC[C@]3(C)C(=CC[C@@H]4[C@@]5(C)CC[C@H](O)C(C)(C)[C@@H]5CC[C@]43C)[C@H]12", "note": "[ursolic acid]", "values": [{"measurement": "inhibition type", "setting": "α-glucosidase [8]", "value": "non-competitive"}]}
